# Source: patent EP4410284A1, “COMPOUND AND METHOD FOR THE TREATMENT OF ZELLWEGER SPECTRUM DISORDER” (Apteeus, priority 2023, dated 2024)
# Where a name gives a salt, the structure may show the parent alone. Read-outs that look alike come from different tables or passages of the source.
# Key:
# [1] = test system: GM16513 cells; test: Beta-oxidation of d4-C24:0 (LC-MS/MS); type: cell-based, human
# Description: Degradation (to d4-C16:0) and elongation (to d4-C26:0 and d4-C28:0) of d4-VLCFA (very long chain fatty acid) in the cells was measured using d4-C24:0 as substrate (D-6145-CDN isotopes). D4-C24:0 was solubilized in culture medium using α-cyclodetrin, with a molar ratio of d4-C24:0:α-cyclodextrin 1:50. Cyclodextrins, which are cyclic oligosaccharides, are commonly used to solubilize fatty acids by complexation, for supplementation of cell culture media, and serve as vehicle to deliver fatty acids to the cells. Cyclodextrins have a polar surface and a hydrophobic cylindrical cavity that can bind and solubilize a wide variety of hydrophobic molecules, such as fatty acids, while remaining soluble in water. The assay was performed in T75 culture flasks for 3 or 10 days. The medium was replaced by fresh medium every 2-3 days and supplemented with d4-C24:0 for the last 3 days. After 3 or 10 days, cells were harvested and lysated in water (100-200 µL) by freeze/thaw cycle and sonication for 5 min. Total proteins were quantified using BCA assay and 100 µg of total proteins were used for each sample.
# After cell lysis, the samples were dried using a rotating evaporator (Genevac EZ-2, SP Scientific), set at 40°C for 2h under vacuum. After evaporation, a hydrolysis mix consisting of 90% acetonitrile and 10% NaOH 1N in water was added to the samples. The samples were incubated for 1h at room temperature under stirring (300 rpm). After hydrolysis, the samples were evaporated using a Genevac device, under vacuum, at 40°C for 2h.
# Derivation of free fatty acids was done using a 2.5 mg/mL Na2CO3 solution in DMF and a 2.5 mg/mL TMAE (trimethylammoniumethyl) reagent solution in DMF. The solutions were mixed in a 1:1 ratio, and 200 µL of the mix was added to dry samples to be derived. For the derivation, the samples were incubated for 3h at 50°C. DMF was then evaporated using a Genevac™ device, under vacuum, at 60°C for 4h.
# Before injection, the samples were solubilized in a 90/10 acetonitrile/isopropanol mixture with 1% HCl. After solubilization, the samples were stirred and centrifuged at 4000 rpm for 20 min at 10°C.
# For the separation of the derived fatty acids by liquid chromatography, a Waters Acquity ultra-performance liquid chromatography (UPLC) system (Acquity I-Class, Waters) was used. […]
# After separation by liquid chromatography, the analytes were subjected to MS analysis using a Waters Xevo TQSmicro system (Waters). […] The molecules were analyzed using MRM (multiple reaction monitoring) mode, with the main daughter ion for each derived fatty acid corresponding to the loss of a trimethylammonium moiety (m/z 59). Derived FAs with a chain length from 16 to 28, with no or one unsaturation, were analyzed. […] The acquired data were analyzed by the Waters MassLynx software.
# [2] = test system: PEX405 cells; test: Catalase import immunofluorescence, high-content screening (% importing cells); type: cell-based, human; settings: for Concentration (lower dose leading to the maximum effect) / Importing cells (%): PEX405 (PEX1); for Importing cells (%): at the lower dose leading to the maximum effect (see E12); for % Importing cells: PEX405 cells, 3 days
# [3] = test system: GM16513 cells; test: as above; type: cell-based, human; settings: GM16513 cells, 3 days; for EC50 / Emax: Homo sapiens, 72 h, dose response with 6 concentrations; for EC50: read-out: EC50; for Emax: read-out: Max Efficacy (% Importing cells)
# [4] = test system: PEX405 cells; type: cell-based; settings: 3 days, PI positive cells (dead cells)
# [5] = test system: GM11335; test: Catalase import immunofluorescence (% importing cells); type: cell-based, human; settings: GM11335 (PEX26); for Importing cells (%): at the lower dose leading to the maximum effect (see E20)
# Description: (§1) Primary fibroblasts were seeded at 500-700 cells per well in 384-well plates and grown at 37°C overnight. Cells were treated with test compounds or 0.1% DMSO for 3 days. After 3 days and a wash with PBS, cells were fixed with 4% paraformaldehyde (Electron Microscopy Sciences) in PBS for 20 minutes. After 3 washes with PBS, the cells were permeabilized and blocked with 0.3% Triton X-100, 1% BSA in PBS for 30 minutes at room temperature followed by 3 washes with 1% BSA in PBS. The cells were incubated with a rabbit Catalase polyclonal antibody (#12980 Cell signaling) overnight at 4°C. Following 3 washes with PBS containing 0.1% Tween-20, the cells were incubated for 1 h at room temperature with a conjugated goat anti-rabbit secondary antibody Alexa Fluor 647 (Ab150083-Abcam). The cells were then washed 3 times with PBS and Hoechst 33342 (H3570-ThermoFisher Scientific) + HCS Cellmask Blue (H32720 - ThermoFisher Scientific) staining was performed at 0.1 µg/ml and 0.4 µg/mL respectively for 30 minutes at room temperature. The cells were finally washed 3 times with PBS and fluorescent images were acquired using the INCell Analyzer 6000 imaging platform (GE Healthcare Life Sciences).
# (§2) Images analysis was done using Columbus analysis software (PerkinElmer). DAPI channel was used to find nuclei (Hoechst 33342) and cytoplasm (HCS CellMask Blue) and border objects were removed. Cy5 channel (AlexaFluor 647) was used to find spots corresponding to peroxisomes which correctly import catalase. Cells were classified as importing or non-importing cells using a linear classifier method after training with images of wells containing Healthy cells and PEX1 deficient cells. The number of importing or non-importing cells was calculated. Finally, results were expressed as % of importing cells.
# (§3) Among the HDAC inhibitors of example 2, 4 were tested on other cells which are PEX1, PEX6 or PEX26 deficient.
# [6] = test system: PEX506; test: as above; type: cell-based, human; settings: PEX506 (PEX6); for Importing cells (%): at the lower dose leading to the maximum effect (see E16)
# Description: as §1, §2, §3
# [7] = test system: PEX304; test: as above; type: cell-based, human; settings: PEX304 (PEX1); for Importing cells (%): at the lower dose leading to the maximum effect (see E14)
# Description: as §1, §2, §3
# [8] = test system: PEX607; test: as above; type: cell-based, human; settings: PEX607 (PEX6); for Importing cells (%): at the lower dose leading to the maximum effect (see E18)
# Description: as §1, §2, §3
# [9] = test system: GM 17398; test: as above; type: cell-based, human; settings: GM 17398 (PEX26 deficient); for Importing cells (%): at the lower dose leading to the maximum effect (see E24)
# Description: as §1, §2, §3
# [10] = 0.5 µM for 3 or 10 days, compared to non-treated cells
EC50 [3] [nM],% PI+ cells ([4]; 1.3 µM) [%],% PI+ cells ([4]; 10 µM) [%],Structure (SMILES),Concentration (lower dose leading to the maximum effect) [2] [µM],Importing cells (%) [2] [%],% Importing cells ([2]; 1.3 µM) [%],% Importing cells ([2]; 10 µM) [%],% Importing cells ([3]; 1.3 µM) [%],% Importing cells ([3]; 10 µM) [%],Emax [3] [%],Concentration (lower dose leading to the maximum effect) [5] [µM],Importing cells (%) [5] [%],Concentration (lower dose leading to the maximum effect) [6] [µM],Importing cells (%) [6] [%],Concentration (lower dose leading to the maximum effect) [7] [µM],Importing cells (%) [7] [%],Concentration (lower dose leading to the maximum effect) [8] [µM],Importing cells (%) [8] [%],Concentration (lower dose leading to the maximum effect) [9] [µM],Importing cells (%) [9] [%],other results
170,3,41,"CCN(CC)Cc1ccc2cc(COC(=O)Nc3ccc(C(=O)NO)cc3)ccc2c1 [Givinostat (hydrochloride monohydrate), Givinostat]",0.25,13,12,6,81,32,80,0.087,20,0.087,69,0.85,5,0.25,42,2.5,0,"d4-C16,C18,C20 and C22 levels ([1]; 3 days of treatment, dose response manner): increase"
200,1,42,O=C(/C=C/c1cccc(S(=O)(=O)Nc2ccccc2)c1)NO [Belinostat],2.5,41,52,27,95,97,98,0.85,30,0.25,64,2.5,11,0.85,43,2.5,0,"relative d4-VLCFA levels (C26, C28) [1, 10]: decrease; shortest d4-FA (C16, C18) levels [1, 10]: increase"
